From patent US6511811B1, “Protein kinase C antagonist related to insulin receptor” (The Regents of the University of California, priority 1995, dated 2003)
Ends that are not written are not given here.

Tests used:
[1] = tested on: insulin receptor kinase activity; conditions: incubation of cells with the inhibitor; Mosthaf et al.; cited from earlier work
[2] = tested on: insulin receptor; experiment: 32P labelling and two-dimensional tryptic phosphopeptide analysis of insulin receptor; assay type: cell-based, human; conditions: stimulation of 32P-labelled HIRcB cells; FIG. 8
Method: HIRcB cells were serum-starved for 16 h and then incubated in phosphate-free DMEM containing 2 mCi/ml ^32P-orthophosphate for 3 h. The cells were then stimulated with high glucose (25 mM) or insulin as indicated. The cells were lysed, and the insulin receptor was immunoprecipitated using […] antibody 83-14 as described. The washed immunoprecipitates were analyzed by SDS electrophoresis. The labeled β-subunit was visualized by autoradiography, excised from the gels and recovered by electroelution.
Polyacrylamide-gel pieces containing ^32P-labeled IR and IRS-1 following in vitro phosphorylation were electroeluted in 20 mM Tris-HCl, pH 8.0, 2 mM EDTA, 0.1% SDS, and 0.1% 2-mercaptoethanol for 4 h. Eluted protein was precipitated with four volumes of acetone at −80° C. for 60 min followed by centrifugation at room temperature for 10 min at 10,000 g. The pellet was dried and digested with 10 μg of TPCK-treated trypsin (Worthington Diagnostic Systems, Freehold, N.J.) in 100 μl of 100 mM N-ethylmorpholine acetate (NMA), pH 8.2, for 24 h at 37° C. A further 10 μg of TPCK-treated trypsin was added and digestion continued for 12 h. The peptides were lyophilized, resuspended with water, and re-lyophilized at least three times. The ^32P-labeled tryptic peptides were then resuspended in 5 μl of electrophoresis buffer and spotted onto thin layer cellulose plates. […]

[3] = tested on: HIRcB cells; experiment: Microinjection of insulin receptor-derived peptides, insulin-stimulated DNA synthesis (BrDU incorporation); assay type: cell-based, Rat; conditions: FIG. 13; for Insulin-stimulated DNA synthesis: high glucose (25 mM); for Insulin-stimulated DNA synthesis / DNA synthesis in insulin-stimulated cells: peptide 10 mM microinjected, 100 ng/ml insulin; for DNA synthesis in insulin-stimulated cells: normal glucose (5 mM)
Method: HIRcB cells were grown to sub-confluence on glass coverslips in D-MEM medium containing normal (5 mM) or high (25 mM) glucose and rendered quiescent by serum deprivation for 24 h. Synthetic cyclo-peptides were derived from the human insulin receptor, containing sequence […] (SEQ ID NO:5) (Serine-1035) and […] (SEQ ID NO:1) (Serine-1270) were synthesized using methods well known in the art. The peptides were dissolved in microinjection buffer containing 5 mM NaPO4 and 100 mM KCl, pH 7.2, to a final concentration of 10 mM. All microinjected reagents contained rabbit IgG (5 mg/ml) to allow the identification […] cells. Samples were microinjected into the cell cytoplasm using an automated microinjection system at a typical needle pressure of about 100 hectopascals resulting in the introduction of 10^5 molecules of IgG.
Approximately 1 h after microinjection, the cells were stimulated with 100 ng/ml insulin and […] BrDU was added. Cells were incubated at 37° C. for an additional 16 h, and then fixed and stained using a monoclonal anti-BrDU antibody. Injected cells were identified with fluorescein isothiocyanate-conjugated donkey anti-rabbit IgG. Nuclear BrDU incorporation was detected with tetramethylrhodamine isothiocyanate-conjugated donkey anti-mouse IgG. The cells were analyzed by fluorescence microscopy.

[4] = tested on: HIRcB cells; experiment: Insulin-stimulated DNA synthesis (BrDU incorporation) with PKC inhibitors; assay type: cell-based, Rat; conditions: microinjection of the inhibitor peptide, high glucose 25 mM; FIG. 11
Method: HIRcB or ΔCT cells were cultured on acid-washed glass coverslips, grown to semi-confluence, and then starved in serum-free DME with 1 mM glucose. The peptide was dissolved in microinjection buffer containing 5 mM NaPO4 and 100 mM KCl, pH 7.4. The cells were microinjected with the PKC inhibitor peptide using glass capillary needles. Approximately 10 femtoliters of this solution was introduced into each cell. The injection included 1×10^6 molecules of IgG as marker for microinjection.
Two hours after microinjection, cells were incubated with BrDU plus various concentrations of growth factors for 16 h at 37° C. The cells were fixed with acid alcohol (90% ethanol, 5% acetic acid) for 20 min at 22° C., and then incubated with mouse monoclonal anti-BrDU antibody for 1 h at 22° C. […] After coverslips were mounted, the cells were analyzed and photographed with an Axiophot fluorescence microscope (Zeiss). […]
The effects of high glucose upon insulin-induced DNA synthesis were examined by first exposing cells to high glucose for 1 h, and then to insulin and BrDU for an additional 18 h. High glucose decreased DNA synthesis in insulin-stimulated cells by 30%, as measured by BrDU incorporation (FIG. 10).

Row | Compound | Effect on hyperglycemia-induced inhibition of insulin receptor kinase activity [1] | Insulin-stimulated DNA synthesis [3] | DNA synthesis in insulin-stimulated cells [3] | also measured
1 | CC1CNCCN1S(=O)(=O)c1cccc2cnccc12 (stereo not drawn) [H7] | is inhibited |  |  | 
2 | CCCCCCCCCCCCCC(=O)O[C@@H]1[C@@H](C)[C@@]2(O)[C@@H](C=C(CO)C[C@]3(O)C(=O)C(C)=C[C@@H]23)[C@@H]2C(C)(C)[C@]12OC(C)=O [Phorbol ester] |  |  |  | Increase of insulin receptor phosphorylation [2]: 1.5 fold
3 | DDLHPSFPEVS (also: cyclized; listed as Homo sapiens) [Ser-1270] |  | significantly increased insulin-stimulated DNA synthesis | slightly increased DNA synthesis | Increase in DNA synthesis compared between the two injected peptides ([3]; normal and high glucose, in each instance): greater than in Ser-1035 peptide-injected cells
4 | KTVNESASLRE (also: cyclized; listed as Homo sapiens) [Ser-1035] |  | significantly increased insulin-stimulated DNA synthesis | slightly increased DNA synthesis | 
5 | RFARKGALRQKNV [peptide 19-31] |  |  |  | Reversal of high glucose inhibition of insulin-stimulated DNA synthesis (BrDU incorporation) [4]: partially reversed inhibition of DNA synthesis
6 | polymyxin B | is inhibited |  |  | 
